Assay results reported in PubChem BioAssay (NCI).
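Tested at 5 concentrations; 48 h exposure; 96-well plates; endpoints linearly interpolated, else capped at highest concentration. GI50: concentration for 50% inhibition of growth. TGI: concentration producing complete growth inhibition.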

Assays:
Assay in all cases: NCI anticancer screen, dose series, 48 h
SW-620 colon = system: SW-620 colon
NCI-H522 lung = system: NCI-H522 lung
SF-268 CNS = system: SF-268 CNS
BT-549 breast = system: BT-549 breast
SN12C renal = system: SN12C renal
HCC-2998 colon = system: HCC-2998 colon
HCT-116 colon = system: HCT-116 colon
SNB-19 CNS = system: SNB-19 CNS

Row | SMILES | GI50 (SW-620 colon) [µM] | TGI (SW-620 colon) [µM] | GI50 (NCI-H522 lung) [µM] | TGI (NCI-H522 lung) [µM] | GI50 (SF-268 CNS) [µM] | TGI (SF-268 CNS) [µM] | GI50 (BT-549 breast) [µM] | TGI (BT-549 breast) [µM] | GI50 (SN12C renal) [µM] | TGI (SN12C renal) [µM] | GI50 (HCC-2998 colon) [µM] | TGI (HCC-2998 colon) [µM] | GI50 (HCT-116 colon) [µM] | TGI (HCT-116 colon) [µM] | GI50 (SNB-19 CNS) [µM] | TGI (SNB-19 CNS) [µM]
1 | C#Cc1ccc(-n2c(/C=C/c3cc(OC)c(OC)c(OC)c3)nc3ncccc3c2=O)cc1 | 3.29 | 49.6 | 2.33 | 6.29 | 5.33 | 98 | 2.99 | 9.95 | 20.5 | > 100 | 27.5 | > 100 | 5.17 | > 100 | 16.2 | > 100
2 | CCOC(=O)C1=C(c2ccccc2)N(Cc2ccccc2)C2(O)C=CC(=O)C3C(=O)N(c4ccccc4)C(=O)C132 (centres undefined) | 1.81 | 3.91 |  |  | 2.56 | 8.08 | 1.76 | 3.58 | 1.55 | 4.9 | 1.77 | 3.26 |  |  | 2 | 4.59
3 | Cc1nc(C(N)=S)sc1C(=O)CC(=O)C(=O)Nc1cccc(Cl)c1C |  | > 100 |  | > 100 |  | > 100 |  | > 100 |  | > 100 |  | > 100 |  | > 100 |  | > 100
4 | CCCCCCN1C(=O)CN=C1Nc1ccc2cc3ccc(NC4=NCC(=O)N4CCCCCC)cc3nc2c1 | 1.84 | 3.7 | 1.79 | 3.91 | 2.02 | 5.72 | 3.46 | 17.6 | 1.75 | 3.45 | 1.58 | 3.04 | 1.19 | 2.48 | 2.07 | 4.67
5 | CCCCCCCCCCCCNC(=O)[C@H]1CSC(c2ccc(OC)c(F)c2)N1 (some centres undefined) | 0.87 | 2.81 | 1.82 | 3.64 | 0.216 | 0.455 | 0.37 | 0.912 | 0.841 | 2.14 | 1.75 | 3.33 | 0.421 | 1.41 | 1.95 | 3.66
6 | CCCCCCCCCCCCCCCCCC1=NC(C)(C)CN1CCO | 1.75 | 3.21 | 1.55 | 3.15 | 1.8 | 3.27 | 19.8 | 48 | 1.61 | 3.61 | 1.71 | 3.11 | 1.63 | 3.19 | 1.66 | 3.28
7 | C[C@H](NC(=O)CCC(F)(F)F)C(=O)N[C@@H]1C(=O)N(CCO)c2ncccc2-c2ccccc21 | > 100 | > 100 | > 100 | > 100 | > 100 | > 100 | > 100 | > 100 | > 100 | > 100 | > 100 | > 100 | > 100 | > 100 | > 100 | > 100
8 | COc1ccc(-n2nc(C)c3c2N(C)C2(C)C[C@@H]4C3(C)[C@@H]3CC4(C2)N(C)c2c(c(C)nn2-c2ccc(OC)cc2)[C@H]3C)cc1 (some centres undefined) |  |  | 0.891 | 6.94 | 4.08 | 70.2 | 4.17 | > 100 | 8.06 | > 100 | 9.65 | > 100 | 2.09 | > 100 | 4.45 | 86.3
9 | COc1cc(C(=O)N/N=C/c2cccc([N+](=O)[O-])c2)cc(OC)c1OC | 3.15 | > 100 | 2.45 | 5.74 | 5.57 | > 100 | 4.95 | 86.6 | 78.9 | > 100 | 7.95 | 59.5 | 4.09 | > 100 | 55.1 | > 100
10 | O=C(CC(C(=O)O)N1CCOCC1)c1ccccc1 (centres undefined) |  | 44.1 |  | > 100 |  | 44.6 |  | 33.5 |  | 35.7 |  |  |  | 27 |  | 53.4
11 | C[C@]12CC[C@@H]3c4ccc(O)cc4CC[C@H]3[C@@H]1CC[C@@H]2NS(=O)(=O)c1ccc(-c2ccccc2)cc1 | 5.54 | > 100 | 4.26 | 27.2 | 3.93 | > 100 | 2.99 | 11.7 | 2.75 | 10.3 | 4.39 | > 100 | 2.88 | 11.4 | 4.92 | > 100
12 | CCN(CC)CCOc1ccc(C2=C(c3ccccc3)CCc3cc(OC)ccc32)cc1 | 2.78 | 8.09 | 3.03 | 9.25 | 5.97 | 18 | 4.17 | 15.2 | 5.48 | 20 | 1.39 | 2.81 | 1.55 | 4.19 | 2.38 | 7.42
13 | O=C(CN=Cc1cccs1)CSC(c1ccccc1)c1ccccc1 | 29.8 | > 100 |  |  | 50.1 | > 100 | 18.4 | 40 | 19.6 | 36.1 | 29.3 | 93.3 | 16.4 | 40.7 | 32.5 | > 100
14 | COc1ccc(N(Cc2cc(OC)c(OC)c(OC)c2)C2OC(=O)c3ccccc32)cc1 (centres undefined) | 0.374 | > 100 | 0.286 | 3.11 | 0.882 | > 100 | 0.428 | > 100 | 0.703 | > 100 | 1.57 | > 28.5 | 0.426 | > 100 |  | 
15 | O=c1c2cc(F)ccc2sc2c(NCCCN3CCCC3)nc3ccccc3c12 |  |  | 1.97 | 3.96 |  |  | 2.99 | 12 | 1.97 | 4.6 | 1.67 | 3.25 | 1.63 | 3.19 | 1.7 | 3.53
16 | CN1c2ccccc2C(=O)Nc2cnc(Cl)nc21 |  | > 100 |  | > 100 |  |  |  |  |  | > 100 |  | > 100 |  | > 100 |  | > 100
17 | O=c1[nH]c(-c2ccccn2)nc2sc3c(c12)CCCCCC3 | 4.85 | > 100 | > 100 | > 100 | 8.66 | > 100 | 5.62 | > 100 | 6.29 | > 100 | 26.2 | > 100 | 1.37 | > 100 |  | 
